Experimental data from US10842779B2, “Heterocyclic compounds and their use in preventing or treating bacterial infections” (priority 2015, dated 2020).
Where two headings read alike, the source gives them in different places.

Key:
AmpC (PAE) = AmpC (PAE) (Pseudomonas aeruginosa, UniProt P24735); assay: biochemical
Experimental: (§1) Method 1: β-Lactamase Inhibitory Activity, Determination of IC50 (Table 1)
(§2) Enzyme activity was monitored by spectrophotometric measurement of nitrocefin (NCF-TOKU-E, N005) hydrolysis at 485 nm, at room temperature and in assay buffer A: 100 mM Phosphate pH7, 2% glycerol and 0.1 mg/mL Bovine serum albumin (Sigma, B4287). Enzymes were cloned in E. coli expression vector, expressed and purified in house using classical procedures. To a transparent polystyrene plate (Corning, 3628) were added in each well 5 μL DMSO or inhibitor dilutions in DMSO and 80 μL enzyme in buffer A. Plates were immediately read at 485 nm in a microplate spectrophotometer (BioTek, PowerWave HT) to enable background subtraction. After 30 min of pre-incubation at room temperature, 15 μL of NCF (200 μM final) were finally added in each well. Final enzyme concentrations were 0.1 nM (TEM-1), 0.075 nM (SHV-1), 0.4 nM (CTX-M-15), 1 nM (KPC-2), 0.2 nM (P99 AmpC), 0.2 nM (CMY-37), 0.4 nM (AmpC P. aeruginosa), 0.2 nM (OXA-1), 1.2 nM (OXA-11), 0.4 nM (OXA-15) and 0.3 nM (OXA-48). After 20 min incubation at room temperature, plates were once again read at 485 nm. Enzyme activity was obtained by subtracting the final signal by the background, and was converted to enzyme inhibition using non inhibited wells. IC50 curves were fitted to a classical Langmuir equilibrium model with Hill slope using XLFIT (IDBS).

AmpC (P99) = AmpC (P99) (Enterobacter cloacae, UniProt P05364); assay: biochemical
Experimental: as §1, §2

OXA-48 = target: T1, OXA-48 (Klebsiella pneumoniae, UniProt Q6XEC0); assay: β-Lactamase inhibitory activity, nitrocefin hydrolysis; format: biochemical; settings: class (D); 30 min pre-incubation
T1 construct: made in house; host or cells: E. coli

OXA-1 = target: T2, OXA-1 (Escherichia coli, UniProt P13661); assay: as above; format: biochemical; settings: class (D); 30 min pre-incubation
T2 construct: made in house; host or cells: E. coli

SHV-1 = target: T3, SHV-1 (Klebsiella pneumoniae, UniProt P0AD64); assay: as above; format: biochemical
T3 construct: made in house; host or cells: E. coli

CTX-M-15 = target: T4, CTX-M-15 (Escherichia coli, UniProt Q9EXV5); assay: as above; format: biochemical; settings: class (A); 30 min pre-incubation
T4 construct: made in house; host or cells: E. coli

TEM-1 = target: T5, TEM-1 (Escherichia coli, UniProt P62593); assay: as above; format: biochemical; settings: class (A); 30 min pre-incubation
T5 construct: made in house; host or cells: E. coli

K. pneumoniae [1] = assay: Synergy with ceftazidime: MIC of ceftazidime at fixed concentration of compound; format: cell-based; settings: Klebsiella pneumoniae, read-out: MIC of CAZ + compound (4 μg/mL), KPN 6299; beta-lactamases TEM-1, SHV-11 OXA-163
Experimental: (§3) Method 2: MIC of Compounds and Synergy with Ceftazidime Against Bacterial Isolates (Table 2 and 3)
(§4) Compounds of the present invention were assessed against genotyped bacterial strains alone or in combination with the β-lactam ceftazidime. In the assays, MICs of said compounds, or of ceftazidime at fixed concentrations of said compounds were determined by the broth microdilution method according to the Clinical Laboratory Standards Institute (CLSI—M7-A7). Briefly, compounds alone according to the invention were prepared in DMSO and spotted (2 μL each) on sterile polystyrene plates (Corning, 3788). Compounds and ceftazidime dilutions were prepared in DMSO and spotted (1 μL each) on sterile polystyrene plates (Corning, 3788). Log phase bacterial suspensions were adjusted to a final density of 5×10^5 cfu/mL in cation-adjusted Mueller-Hinton broth (Beckton-Dickinson) and added to each well (98 μL). Microplates were incubated for 16-20 h at 35° C. in ambient air. The MIC of the compounds was defined as the lowest concentration of said compounds that prevented bacterial growth as read by visual inspection. The MIC of ceftazidime at each compound concentration was defined as the lowest concentration of ceftazidime that prevented bacterial growth as read by visual inspection.

E. cloacae [2] = assay: as above; format: cell-based; settings: Enterobacter cloacae, ECL P99; beta-lactamases AmpC; read-out: MIC of CAZ + compound (4 μg/mL)
Experimental: as §3, §4

KPC-2 = target: T6, KPC-2 (Klebsiella pneumoniae, UniProt Q9F663); assay: β-Lactamase inhibitory activity, nitrocefin hydrolysis; format: biochemical; settings: class (A); 30 min pre-incubation
T6 construct: made in house; host or cells: E. coli

OXA-15 = target: T7, OXA-15 (Pseudomonas aeruginosa, UniProt Q51574); assay: as above; format: biochemical
T7 construct: made in house; host or cells: E. coli

OXA-11 = target: T8, OXA-11 (Pseudomonas aeruginosa, UniProt Q06778); assay: as above; format: biochemical
T8 construct: made in house; host or cells: E. coli

[3] = target: CMY-37 (Citrobacter freundii); assay: as above; format: biochemical
K. pneumoniae [4] = assay: MIC of compounds alone, broth microdilution; format: cell-based; settings: Klebsiella pneumoniae, alone; KPN 6299; beta-lactamases TEM-1, SHV-11 OXA-163; read-out: MIC
Experimental: as §3, §4

E. coli = assay: MIC of compounds alone, broth microdilution; format: cell-based; settings: Escherichia coli, ECO 190317, beta-lactamases TEM-1, SHV-12, CTX-M-15 OXA-1, read-out: MIC
Experimental: as §3, §4

E. cloacae [5] = assay: MIC of compounds alone, broth microdilution; format: cell-based; settings: Enterobacter cloacae, ECL P99, beta-lactamases AmpC, read-out: MIC
Experimental: as §3, §4

Row | SMILES | IC50 (AmpC (PAE)) [nM] | IC50 (AmpC (P99)) [nM] | IC50 (OXA-48) [nM] | IC50 (OXA-1) [nM] | IC50 (SHV-1) [nM] | IC50 (CTX-M-15) [nM] | IC50 (TEM-1) [nM] | MIC (K. pneumoniae [1]) [µg/mL] | MIC (E. cloacae [2]) [µg/mL] | IC50 (KPC-2) [nM] | IC50 (OXA-15) [nM] | IC50 (OXA-11) [nM] | IC50 ([3]; class (C), 30 min pre-incubation, read-out: IC50 β-lactamase CMY-37) [nM] | MIC (K. pneumoniae [4]) [µg/mL] | MIC (E. coli) [µg/mL] | MIC (E. cloacae [5]) [µg/mL] | IC50 [3] [nM]
1 | O=C1N2C[C@H](c3scnc3[C@H]2c2ncno2)N1OS(=O)(=O)[O-].[Na+] (relative stereo) [Example 4, Sodium [trans-7-(1,2,4-oxadiazol-5-yl)-9-oxo-3-thia-5,8,10-triaza-tricyclo[6.2.1.0^2,6]undeca-2(6),4-dien-10-yl]sulfate] | 64 | 1.1 | 0.34 | 170 | 1.4 | 0.64 | 1.1 | 2 | 2 | 3.2 | 19 | 6.5 | 3.4 | > 32 | 16 | 32 | 
2 | O=C(O)C(F)(F)F.O=C1N2C[C@H](c3scnc3[C@H]2c2nnc[nH]2)N1OS(=O)(=O)[O-].[Na+] (relative stereo) [Example 3, Sodium and 2,2,2-trifluoroacetate [trans-7-(4H-1,2,4-triazol-4-ium-3-yl)-9-oxo-3-thia-5,8,10-triaza-tricyclo[6.2.1.0^2,6]undeca-2(6),4-dien-10-yl]sulfate] | 570 | 13 | 6.8 | 1000 | 140 | 28 | 46 |  |  | 460 | 1100 | 190 |  |  | 16 |  | 30
